According to ChEMBL document CHEMBL4373747 (ACS Med Chem Lett, 2020):

Legend:
Histone deacetylase 7 = molecular target: T1, Histone deacetylase 7 (Homo sapiens, UniProt Q8WUI4); test: Inhibition of recombinant full length human HDAC7 expressed in baculovirus infected Sf9 cells using FAM-RHKK-TFAc as substrate incubated for 3 hrs by electrophoretic mobility shift assay
T1 sequence (Q8WUI4 whole entry): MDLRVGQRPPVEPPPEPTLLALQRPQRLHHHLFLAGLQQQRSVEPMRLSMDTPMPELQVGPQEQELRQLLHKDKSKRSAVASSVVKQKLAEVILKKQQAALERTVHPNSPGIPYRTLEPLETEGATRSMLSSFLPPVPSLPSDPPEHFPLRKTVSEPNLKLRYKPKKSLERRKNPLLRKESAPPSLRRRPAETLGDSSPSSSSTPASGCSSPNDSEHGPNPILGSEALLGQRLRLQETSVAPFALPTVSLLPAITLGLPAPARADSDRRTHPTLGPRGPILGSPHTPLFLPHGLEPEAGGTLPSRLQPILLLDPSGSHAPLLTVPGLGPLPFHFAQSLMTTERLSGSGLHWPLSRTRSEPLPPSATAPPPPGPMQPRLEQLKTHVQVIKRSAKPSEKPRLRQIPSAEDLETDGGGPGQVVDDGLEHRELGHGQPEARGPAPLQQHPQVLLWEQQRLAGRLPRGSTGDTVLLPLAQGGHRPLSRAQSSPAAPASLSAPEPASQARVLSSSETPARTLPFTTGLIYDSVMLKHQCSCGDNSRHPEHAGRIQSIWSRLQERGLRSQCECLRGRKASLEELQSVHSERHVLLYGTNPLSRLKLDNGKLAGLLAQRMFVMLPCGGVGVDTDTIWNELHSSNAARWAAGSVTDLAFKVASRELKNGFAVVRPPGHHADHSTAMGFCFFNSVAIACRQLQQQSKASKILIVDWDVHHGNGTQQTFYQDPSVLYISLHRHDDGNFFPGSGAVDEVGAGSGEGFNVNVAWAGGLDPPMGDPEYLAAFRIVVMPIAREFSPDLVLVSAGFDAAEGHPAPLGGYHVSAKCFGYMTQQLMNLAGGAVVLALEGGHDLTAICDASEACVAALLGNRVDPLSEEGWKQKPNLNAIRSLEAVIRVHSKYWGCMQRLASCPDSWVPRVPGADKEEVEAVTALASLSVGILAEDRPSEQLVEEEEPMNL

[1] = Intrinsic clearance in ICR/CD1 mouse hepatocytes at 1 uM measured upto 120 mins by LCMS analysis; format: ADME, cell-based, Hepatocyte; conditions: 2 h
Histone deacetylase 4 = Histone deacetylase 4 (Homo sapiens, UniProt P56524); test: Inhibition of recombinant full length human HDAC4 expressed in baculovirus infected Sf9 cells using FAM-RHKK-TFAc as substrate incubated for 1.5 hrs by electrophoretic mobility shift assay
Chain of Histone deacetylase 4 (P56524 whole entry): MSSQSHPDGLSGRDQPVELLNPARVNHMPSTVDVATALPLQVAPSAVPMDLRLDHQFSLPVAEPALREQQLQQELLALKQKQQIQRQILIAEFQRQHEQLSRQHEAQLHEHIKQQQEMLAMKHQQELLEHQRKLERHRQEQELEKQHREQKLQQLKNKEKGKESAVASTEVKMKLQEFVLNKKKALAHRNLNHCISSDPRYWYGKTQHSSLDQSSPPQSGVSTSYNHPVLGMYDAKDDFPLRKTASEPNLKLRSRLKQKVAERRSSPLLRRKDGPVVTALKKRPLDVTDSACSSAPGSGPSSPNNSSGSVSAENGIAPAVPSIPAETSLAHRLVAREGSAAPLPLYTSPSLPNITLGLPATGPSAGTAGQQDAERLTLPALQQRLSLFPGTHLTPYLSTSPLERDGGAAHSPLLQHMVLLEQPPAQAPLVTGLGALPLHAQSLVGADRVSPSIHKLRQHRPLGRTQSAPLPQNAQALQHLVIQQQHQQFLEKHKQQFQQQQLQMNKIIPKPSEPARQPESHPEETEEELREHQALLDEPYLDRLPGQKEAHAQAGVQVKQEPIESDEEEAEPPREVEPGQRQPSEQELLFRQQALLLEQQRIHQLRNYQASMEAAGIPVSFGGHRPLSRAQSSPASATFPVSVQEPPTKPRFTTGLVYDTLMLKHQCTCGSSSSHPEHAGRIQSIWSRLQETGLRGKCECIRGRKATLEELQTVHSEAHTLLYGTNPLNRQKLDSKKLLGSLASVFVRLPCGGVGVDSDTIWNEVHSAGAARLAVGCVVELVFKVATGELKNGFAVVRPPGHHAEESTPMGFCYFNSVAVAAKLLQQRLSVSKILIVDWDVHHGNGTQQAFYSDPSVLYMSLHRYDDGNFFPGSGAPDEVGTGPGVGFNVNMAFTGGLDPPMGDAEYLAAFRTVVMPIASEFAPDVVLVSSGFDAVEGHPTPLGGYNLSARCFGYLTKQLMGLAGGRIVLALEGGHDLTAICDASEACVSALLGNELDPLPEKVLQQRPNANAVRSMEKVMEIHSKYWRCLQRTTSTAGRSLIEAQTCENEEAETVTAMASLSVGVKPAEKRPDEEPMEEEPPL

MV4-11 [2] = test: Induction of apoptosis in human MV4-11 cells assessed as early apoptotic cells at 0.5 uM incubated for 18 hrs by annexin V FITC and PI based flow cytometry (reference value: 19.46 to 22.17 %); format: functional
MOLM-13 = test: Cytotoxicity against human MOLM13 cells assessed as reduction in cell viability incubated for 72 hrs by cell-titer blue assay; format: functional, cell-based; conditions: MOLM-13, 72 h
MV4-11 [3] = test: Cytotoxicity against human MV4-11 cells assessed as reduction in cell viability incubated for 72 hrs by cell-titer blue assay; format: functional, cell-based; conditions: MV4-11, 72 h
MV4-11 [4] = test: Induction of apoptosis in human MV4-11 cells assessed as viable cells at 2 uM incubated for 18 hrs by annexin V FITC and PI based flow cytometry (reference value: 53.01 to 53.07 %); format: functional; conditions: Homo sapiens, MV4-11, 18 h; read-out: Activity
[5] = molecular target: T2, Protein deacetylase HDAC6 (Homo sapiens, UniProt Q9UBN7); test: Inhibition of recombinant full length human HDAC6 expressed in baculovirus infected Sf9 cells assessed as inhibitory constant using FAM-RHKK-Ac as substrate incubated for 5 hrs by electrophoretic mobility shift assay
T2 sequence (Q9UBN7 whole entry): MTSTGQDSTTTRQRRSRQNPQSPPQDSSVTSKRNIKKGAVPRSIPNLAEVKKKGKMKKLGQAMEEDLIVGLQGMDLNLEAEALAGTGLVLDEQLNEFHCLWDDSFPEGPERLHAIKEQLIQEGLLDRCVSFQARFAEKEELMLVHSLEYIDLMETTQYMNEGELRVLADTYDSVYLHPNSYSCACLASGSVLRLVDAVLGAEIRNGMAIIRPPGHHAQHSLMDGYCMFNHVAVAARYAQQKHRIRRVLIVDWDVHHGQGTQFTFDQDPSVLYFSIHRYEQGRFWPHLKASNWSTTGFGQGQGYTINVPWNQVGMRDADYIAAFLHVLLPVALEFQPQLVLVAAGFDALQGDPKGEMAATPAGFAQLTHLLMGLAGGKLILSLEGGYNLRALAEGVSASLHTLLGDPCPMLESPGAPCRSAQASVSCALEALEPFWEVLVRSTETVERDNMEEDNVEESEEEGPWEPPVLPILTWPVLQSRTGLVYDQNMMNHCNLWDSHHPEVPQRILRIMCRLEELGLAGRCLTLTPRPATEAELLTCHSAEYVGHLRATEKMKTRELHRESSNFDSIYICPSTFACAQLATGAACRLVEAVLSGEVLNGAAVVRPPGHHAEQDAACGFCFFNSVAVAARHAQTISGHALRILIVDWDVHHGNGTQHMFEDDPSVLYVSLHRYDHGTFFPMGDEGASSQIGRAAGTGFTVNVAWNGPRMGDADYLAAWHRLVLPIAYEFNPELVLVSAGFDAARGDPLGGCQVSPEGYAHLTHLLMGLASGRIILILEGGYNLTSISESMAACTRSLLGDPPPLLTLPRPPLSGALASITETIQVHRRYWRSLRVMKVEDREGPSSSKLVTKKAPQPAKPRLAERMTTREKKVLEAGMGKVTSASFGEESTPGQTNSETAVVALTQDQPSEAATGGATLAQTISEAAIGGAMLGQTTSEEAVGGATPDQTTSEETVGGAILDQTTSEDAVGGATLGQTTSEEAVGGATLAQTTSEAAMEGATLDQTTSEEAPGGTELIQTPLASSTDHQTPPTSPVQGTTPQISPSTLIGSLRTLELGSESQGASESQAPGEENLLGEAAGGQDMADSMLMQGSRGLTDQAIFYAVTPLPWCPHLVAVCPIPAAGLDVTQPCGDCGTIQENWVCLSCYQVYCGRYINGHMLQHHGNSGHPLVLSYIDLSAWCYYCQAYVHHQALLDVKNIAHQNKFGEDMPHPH

[6] = molecular target: T3, Protein deacetylase HDAC6 (Homo sapiens) (UniProt Q9UBN7); test: (§1) Inhibition of HDAC6 in human HeLa cells incubated for 15 mins by ELISA; format: cell-based
T3 sequence (whole entry): T2 sequence (Q9UBN7 whole entry)

[7] = molecular target: T2, Protein deacetylase HDAC6; test: as §1; format: cell-based
MV4-11 [8] = test: Induction of apoptosis in human MV4-11 cells assessed as early apoptotic cells at 2 uM incubated for 18 hrs by annexin V FITC and PI based flow cytometry (reference value: 19.46 to 22.17 %); format: functional
[9] = Protein binding in CD-1 mouse plasma at 1 uM incubated for 6 hrs by LCMS analysis; format: ADME, cell-free; conditions: CD-1, mouse, read-out: PPB (converted)

**Q.** With `CC(C)(C)c1ccc(C(=O)Nc2ccc(C(=O)NO)cc2)cc1` as the molecule, how does the IC50 (Histone deacetylase 7) read?
**A.** > 1000 nM

**Q.** And the CLH [1]?
**A.** 49.1 µL/min

**Q.** What about the IC50 (Histone deacetylase 4) of the same molecule?
**A.** > 1000 nM

**Q.** And the Activity (MV4-11 [2])?
**A.** 20.69%

**Q.** And the IC50 (MOLM-13)?
**A.** 6000 nM

**Q.** What about the IC50 (MV4-11 [3]) of the same molecule?
**A.** 576 nM

**Q.** And the viability at 2 µM (MV4-11 [4])?
**A.** 22.1%

**Q.** And the Ki [5]?
**A.** 35 nM

**Q.** And the inhibition [6]?
**A.** Dose-dependent effect

**Q.** And the IC50 [7]?
**A.** 580 nM

**Q.** What about the Activity (MV4-11 [8]) of the same molecule?
**A.** 27.83%

**Q.** What about the fraction unbound at 6 h, 1 µM [9] of the same molecule?
**A.** 0.047
